The values below come from patent US8999957B2, “Heterocyclic compounds as ERK inhibitors” (Merck Sharp & Dohme Corp., priority 2010, dated 2015).

The target of test [1] is ERK protein (Mus musculus, UniProt P63085). As to the kind of experiment: TdF (Temperature Dependence Fluorescence, thermal shift) assay for ERK. The note with it: 3 μM ERK protein, uncertainty estimated ±50%, read-out: Kd TdF. It counts as binding. From the text: Assays: TdF Assay for ERK […] The TdF assay was mainly conducted in the 96-well based CHROMO-4 real time fluorescence plate reader (BioRad). The Sypro Orange (Sigma-Aldrich), environmentally sensitive fluorescence dye, was used to monitor the protein folding-unfolding transition. Protein-ligand binding was gauged by the change (or shift) in the unfolding transition temperature (ΔTm) acquired at protein alone with respect to protein in the presence of ligand of interest. Compound of interest was first prepared in DMSO stock (typical concentration: 10 mM). […] Final percentage of DMSO resided in the sample was 2%. The sample plate was heated from 30° C. to 90° C. with thermal ramping rate of 1° C./min. […] The instrument thermal stability was ±0.2° C. The melting temperatures (Tm) for ERK protein under aforementioned conditions occurred at 61.0±0.2° C. and 64.8±02° C. respectively. Theoretical Basis for TdF-Based Ligand Binding Affinity Constant […] In brief, the binding constant of the ligand at the Tm is expressed as below: [formula] where T0 is the midpoint of unfolding for unliganded protein and Tm is the midpoint of unfolding in presence of ligand. [LTm] is free ligand at Tm. The ΔHu and ΔCpu are the enthalpy of unfolding and heat capacity change of unfolding for the protein respectively. Following algorithm derived by Winsor and coworker, the T0, ΔHu and ΔCpu can be determined separately from nonlinear regression fitting the protein alone melting curve: Where F(T) is the observed fluorescence intensity at any temperature T, Yn and Yu are the predicted fluorescence intensities for fully folded and unfolded protein, respectively; mn and mu are slope correction for changes in Yn and Yu with respect to changes in temperature (analogously replace T0 with Tm in the above equation for liganded protein to yield Tm). […] [formula] where ΔHL (T) is the van't Hoff enthalpy of ligand binding at temperature T and ΔCpL is the heat capacity upon ligand binding. For simplicity, the ΔCpL and ΔHL (T) were set to zero and −7 kcal/mol respectively.
Sequence of ERK protein (P63085 2-358 limits assumed): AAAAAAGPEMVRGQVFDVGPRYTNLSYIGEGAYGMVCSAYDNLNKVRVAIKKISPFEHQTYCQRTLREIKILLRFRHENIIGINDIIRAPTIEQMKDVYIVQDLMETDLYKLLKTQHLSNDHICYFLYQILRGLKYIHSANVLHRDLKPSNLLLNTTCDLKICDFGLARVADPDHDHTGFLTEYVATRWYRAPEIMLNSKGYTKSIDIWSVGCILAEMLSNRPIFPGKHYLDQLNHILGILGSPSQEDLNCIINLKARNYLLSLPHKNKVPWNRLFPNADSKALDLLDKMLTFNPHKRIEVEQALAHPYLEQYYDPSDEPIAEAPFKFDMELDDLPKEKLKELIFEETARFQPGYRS

For test [2], the target named is inactive ERK2 (unphosphorylated Mouse ERK2 protein) (Mus musculus (Mouse), UniProt P63085). As to the kind of experiment: Coupled ERK2 (cERK) assay, coupled MEK1/ERK2 IMAP assay. It counts as biochemical. As to conditions: 30 μM ATP. The method, then: 14 μl of kinase buffer (10 mM Tris.HCl pH 7.2, 10 mM MgCl2, 0.01% Tween-20, 1 mM DTT) containing 0.4 ng unphosphorylated Mouse ERK2 protein was added to each well of a black 384-well assay plate. […] DMSO concentration during initial incubation is 6.7%. ERK2 activity was determined to be insensitive to DMSO concentrations up to 20%. ERK2 was then activated and it's kinase activity measured by the addition of 10 μl kinase buffer with the following components (final concentration per reaction): 2 ng active (phosphorylated) human MEK1 protein and 4 μM (total) ERK2 IMAP substrate peptides (3.9 μM unlabeled […]-CONH2 and 100 nM […](5-carboxyfluorescein)-CONH2) and 30 μM ATP. DMSO concentration during ERK activation was 4%. After one hour, reactions were terminated by addition of 60 μl IMAP detections beads in binding buffer (Molecular Devices). Binding was allowed to equilibrate for 30 minutes before reading the plate on an LJL Analyst Fluorescence Polarization plate reader. […] Active compounds were reconfirmed in an independent assay.
Sequence of inactive ERK2 (unphosphorylated Mouse ERK2 protein) (P63085 whole entry): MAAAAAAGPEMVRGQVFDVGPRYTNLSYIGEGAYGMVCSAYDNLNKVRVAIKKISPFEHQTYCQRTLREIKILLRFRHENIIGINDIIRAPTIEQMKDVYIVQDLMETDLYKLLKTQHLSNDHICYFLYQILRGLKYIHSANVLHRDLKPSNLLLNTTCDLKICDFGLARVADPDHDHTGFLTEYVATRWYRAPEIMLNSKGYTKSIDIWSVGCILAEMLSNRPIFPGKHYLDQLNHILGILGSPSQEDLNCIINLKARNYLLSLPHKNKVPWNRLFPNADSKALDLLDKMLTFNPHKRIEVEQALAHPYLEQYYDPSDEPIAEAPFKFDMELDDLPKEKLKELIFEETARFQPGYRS

In test [3] the target is fully phosphorylated, active Mouse ERK2 protein (Mus musculus (Mouse), UniProt P63085). As to the kind of experiment: Active ERK2 (aERK) IMAP assay, condition 1. It is filed as biochemical. As to conditions: aERK assay condition 1, 30 μM ATP. The method, then:
Active ERK2 (aERK) Assay: (Unless Indicated Otherwise, the Data Provided for aERK was obtained using Condition 1)
Activated ERK2 activity was also determined in the IMAP assay format using the procedure outlined above. […] Reactions proceeded for 30 minutes before termination by addition of 60 μl IMAP detection beads in binding buffer. Plates were read as above after 30 minute binding equilibration.

Sequence of fully phosphorylated, active Mouse ERK2 protein (P63085 whole entry): as above

With `O=C(NC1CCCN(Cc2ccccc2)C1)c1ccc2[nH]nc(-c3ccncc3)c2c1` (centres unmarked), the Kd in test [1] is 0.6 nM. In addition, the IC50 in test [2] came to 16.6 nM; in test [3] it was 32.5 nM.

For `CC(c1ccccc1)N1CCC[C@@H](NC(=O)c2ccc3[nH]nc(-c4ccncc4)c3c2)C1` (some centres unmarked), the Kd in test [1] is 804 nM. Further, the values for the IC50 in test [2] and in test [3] were 763 nM and 475 nM, respectively.

In the case of `CC(C)Oc1ccc(-c2n[nH]c3ccc(C(=O)N[C@@H]4CCCN(Cc5ccccc5F)C4)cc23)cc1`, the Kd in test [1] was 1.2 nM. The IC50 in test [2] was 443 nM; in test [3], 275 nM.

With `CC(C)Oc1ccc(-c2n[nH]c3ccc(C(=O)N[C@@H]4CCCN(Cc5ccccc5F)C4)cc23)cn1`, in test [1], the Kd is 2 nM. For the same molecule, the IC50 in test [2] worked out at 124 nM; in test [3], 77.9 nM.

As to `O=C(N[C@H]1CCCN(Cc2ccccc2)C1)c1ccc2[nH]nc(-c3ccncc3)c2c1`, the dissociation constant (Kd) in test [1] is 118 nM. In addition, the half-inhibitory concentration (IC50) in test [2] worked out at 304 nM; in test [3], 485 nM.

For the molecule `O=C(N[C@@H]1CCCN(Cc2ccccc2F)C1)c1ccc2[nH]nc(-c3ccncc3)c2c1`, the Kd in test [1] was 0.6 nM. Moreover, the half-maximal inhibitory concentration (IC50) stood at 1.1 nM in test [2] and 5.5 nM in test [3].

`O=C(N[C@@H]1CCCN(Cc2ccccc2F)C1)c1ccc2[nH]nc(-c3ccnc(Cl)c3)c2c1`: the dissociation constant (Kd) in test [1] was 0.58 nM. The IC50 in test [2] is 25 nM; in test [3] it was 26.1 nM.

As for `O=C(NC1CCCN(Cc2ccccc2)C1)c1ccc2[nH]nc(-c3ccc4c(c3)CCO4)c2c1` (centres unmarked), in test [1], the Kd was 1.4 nM. For the same molecule, the IC50 in test [2] worked out at 172 nM; in test [3], 134 nM.

Turning to `O=C(NC1CCCN(Cc2ccccc2F)C1)c1ccc2[nH]nc(-c3ccc4c(c3)CCO4)c2c1` (centres unmarked), in test [1], the Kd is 2.6 nM. Also, the IC50 in test [2] is 231 nM; in test [3], 284 nM.

In the case of `O=C(N[C@H]1CCCN(Cc2ccccc2F)C1)c1ccc2[nH]nc(-c3ccncc3)c2c1`, the Kd in test [1] was 38 nM. In addition, the 50% inhibitory concentration (IC50) was 166 nM in test [2] and 224 nM in test [3].

On to `O=C(N[C@@H]1CCCN(Cc2ccccc2F)C1)c1ccc2[nH]nc(-c3ccc4c(c3)CCO4)c2c1`, for which the Kd in test [1] was 0.61 nM. Further, the IC50 in test [2] was 48.6 nM; in test [3], 52.1 nM.

With `O=C(NC1CCCN(Cc2ccccc2F)C1)c1ccc2[nH]nc(-c3ccncc3)c2c1` (centres unmarked), the Kd in test [1] is 0.3 nM. The half-inhibitory concentration (IC50) in test [2] is 14.4 nM; in test [3], 28.1 nM.

For `O=C(N[C@@H]1CCCN(Cc2ccccc2)C1)c1ccc2[nH]nc(-c3ccncc3)c2c1`, the Kd in test [1] is 0.3 nM. The IC50 in test [2] came out at 2.9 nM; in test [3], 5.8 nM.

Take `COc1cccc(F)c1CN1CCC[C@@H](NC(=O)c2ccc3[nH]nc(-c4ccc(S(=O)(=O)N(C)C)cc4)c3c2)C1`: the Kd in test [1] was 2.63 nM. Half-maximal inhibition in test [3] (IC50) was put at 359 nM.

Consider `CN1CC(NC(=O)c2ccc3[nH]nc(-c4ccncc4)c3c2)CC(c2ccccc2)C1` (centres unmarked) [drawing 158, N-(1-methyl-5-phenylpiperidin-3-yl)-3-(pyridin-4-yl)-1H-indazole-5-carboxamide], for which the Kd in test [1] is 1.4 nM. Further, the IC50 was determined as 7.4 nM in test [2] and 2.6 nM in test [3].

For the molecule `COc1cccc(F)c1CN1CCC[C@@H](NC(=O)c2ccc3[nH]nc(-c4ccc(S(C)(=O)=O)cc4)c3c2)C1`, the Kd in test [1] was 1.37 nM. In test [3], this molecule displayed an IC50 of 195 nM.

For the molecule `Cc1cc(-c2n[nH]c3ccc(C(=O)N[C@@H]4CCCN(Cc5ccccc5O)C4)cc23)ccn1`, the Kd in test [1] was 2.36 nM. The molecule further showed an IC50 in test [3] of 140 nM.

As for `COc1cc(-c2n[nH]c3ccc(C(=O)N[C@@H]4CCCN(Cc5ccccc5F)C4)cc23)ccn1`, in test [1], the Kd was 0.81 nM. The molecule further showed an IC50 in test [3] of 112 nM.

In the case of `N#Cc1ccc(CN2CCC[C@@H](NC(=O)c3ccc4[nH]nc(-c5ccc6c(c5)CCO6)c4c3)C2)cc1`, the Kd in test [1] was 82 nM. In test [3], this molecule came in with an IC50 of 1000 nM.

Turning to `CC(C)Oc1ccc(-c2n[nH]c3ccc(C(=O)NC4CCCN(Cc5ccccc5F)C4)cc23)cn1` (centres unmarked), the Kd in test [1] was 2.9 nM. In addition, the figures for the IC50 in test [2] and in test [3] were 307 nM and 769 nM, respectively.

As to `COc1ccccc1CN1CCC[C@@H](NC(=O)c2ccc3[nH]nc(-c4ccc(O)c(NC(C)=O)c4)c3c2)C1`, the dissociation constant (Kd) in test [1] was 1.29 nM. This molecule also returned a concentration for half-maximal inhibition (IC50) in test [3] of 254 nM.

Regarding `Cc1cc(-c2n[nH]c3ccc(C(=O)N[C@@H]4CCCN(CCc5ccccc5F)C4)cc23)ccn1`, in test [1], the Kd is 4.8 nM. In test [3], this molecule had an IC50 of 98.8 nM.

One may read the Kd as the equilibrium constant for the complex coming apart. One may read the IC50 as the concentration needed to halve the response being measured. Lower therefore signals higher potency.
